Experimental findings from the Kinase Knowledgebase extract (Sharma et al. 2016) are described below.

For assay [1], the target named is PIK3CD (Human) (UniProt O00329). Briefly: Enzyme Assay.
The target in assay [2] is PIK3CA (human) (UniProt P42336). Briefly: Enzyme Assay.
PIK3CA (human), sequence (P42336 whole entry, looked up): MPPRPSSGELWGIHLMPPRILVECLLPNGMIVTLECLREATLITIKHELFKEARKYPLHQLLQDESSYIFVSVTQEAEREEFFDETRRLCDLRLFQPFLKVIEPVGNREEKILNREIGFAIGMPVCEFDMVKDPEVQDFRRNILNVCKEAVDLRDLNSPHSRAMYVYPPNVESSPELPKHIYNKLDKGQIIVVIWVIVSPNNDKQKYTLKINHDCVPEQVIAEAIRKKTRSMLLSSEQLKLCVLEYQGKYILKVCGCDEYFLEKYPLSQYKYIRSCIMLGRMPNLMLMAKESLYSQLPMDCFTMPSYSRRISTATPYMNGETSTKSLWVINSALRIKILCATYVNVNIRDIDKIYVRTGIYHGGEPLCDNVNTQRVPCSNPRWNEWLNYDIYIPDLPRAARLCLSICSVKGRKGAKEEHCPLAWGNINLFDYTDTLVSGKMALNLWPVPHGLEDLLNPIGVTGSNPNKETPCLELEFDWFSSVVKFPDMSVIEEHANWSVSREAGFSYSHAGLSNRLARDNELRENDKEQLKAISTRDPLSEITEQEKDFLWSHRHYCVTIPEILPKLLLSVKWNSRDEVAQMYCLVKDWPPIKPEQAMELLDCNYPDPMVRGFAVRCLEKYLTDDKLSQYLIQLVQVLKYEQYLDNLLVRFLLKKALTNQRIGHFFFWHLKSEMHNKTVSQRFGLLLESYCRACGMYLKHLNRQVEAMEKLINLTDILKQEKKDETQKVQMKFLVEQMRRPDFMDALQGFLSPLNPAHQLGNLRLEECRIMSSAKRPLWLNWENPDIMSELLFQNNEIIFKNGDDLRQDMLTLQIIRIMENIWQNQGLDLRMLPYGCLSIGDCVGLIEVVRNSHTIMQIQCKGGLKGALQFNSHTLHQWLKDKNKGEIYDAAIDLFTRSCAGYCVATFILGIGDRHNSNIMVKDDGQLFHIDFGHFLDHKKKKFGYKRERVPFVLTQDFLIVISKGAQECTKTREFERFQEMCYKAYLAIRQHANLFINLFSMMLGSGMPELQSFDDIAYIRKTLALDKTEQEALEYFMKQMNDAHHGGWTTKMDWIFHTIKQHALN

PIK3CD (Human), sequence (O00329 whole entry, looked up): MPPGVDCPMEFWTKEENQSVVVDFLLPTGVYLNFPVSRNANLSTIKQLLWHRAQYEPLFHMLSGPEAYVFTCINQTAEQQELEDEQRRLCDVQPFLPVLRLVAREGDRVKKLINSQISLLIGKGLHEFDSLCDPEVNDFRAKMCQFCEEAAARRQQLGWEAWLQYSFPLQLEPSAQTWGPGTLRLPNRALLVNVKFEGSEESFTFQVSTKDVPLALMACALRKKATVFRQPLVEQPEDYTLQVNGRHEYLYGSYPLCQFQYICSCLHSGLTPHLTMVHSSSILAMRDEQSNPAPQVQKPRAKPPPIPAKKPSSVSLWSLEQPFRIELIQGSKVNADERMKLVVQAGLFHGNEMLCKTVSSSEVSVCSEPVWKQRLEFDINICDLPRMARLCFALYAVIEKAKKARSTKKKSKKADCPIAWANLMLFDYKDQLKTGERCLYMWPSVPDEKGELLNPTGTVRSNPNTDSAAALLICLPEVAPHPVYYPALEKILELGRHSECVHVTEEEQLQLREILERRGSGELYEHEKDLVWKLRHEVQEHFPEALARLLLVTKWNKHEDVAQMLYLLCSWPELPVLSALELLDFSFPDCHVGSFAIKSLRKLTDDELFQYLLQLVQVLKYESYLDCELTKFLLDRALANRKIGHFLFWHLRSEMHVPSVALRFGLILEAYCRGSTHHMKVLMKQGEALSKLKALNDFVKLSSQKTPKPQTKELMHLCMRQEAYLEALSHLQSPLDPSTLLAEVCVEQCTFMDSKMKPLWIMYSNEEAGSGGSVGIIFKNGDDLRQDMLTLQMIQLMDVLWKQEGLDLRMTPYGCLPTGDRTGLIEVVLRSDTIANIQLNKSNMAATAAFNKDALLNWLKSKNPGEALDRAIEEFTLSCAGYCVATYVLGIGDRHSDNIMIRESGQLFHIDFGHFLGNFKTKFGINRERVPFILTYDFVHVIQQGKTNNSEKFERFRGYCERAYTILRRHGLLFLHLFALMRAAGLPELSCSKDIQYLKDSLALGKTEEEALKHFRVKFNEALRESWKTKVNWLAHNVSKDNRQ

As to `Cc1cccc2cc([C@H](C)Nc3ncnc4[nH]cnc34)n(C(C)C)c(=O)c12`, the IC50 (usually the concentration needed to halve the response being measured) in assay [1] was below 100 nM. Consider `Cc1cccc2cc([C@H](C)Nc3ncnc4[nH]ccc34)n(-c3ccccc3)c(=O)c12`, for which the IC50 is below 100 nM in assay [1] and above 10000 nM in assay [2]. In assay [1], `CC(Nc1ncnc2[nH]cnc12)c1cc2ccccc2c(=O)n1C1CCN(C)CC1` (stereo not given) displayed an IC50 of 100 to 1000 nM. As for `Cc1ccccc1-n1c(Cn2nc(C#C[C@H](C)O)c3c(N)ncnc32)cc2cccc(C)c2c1=O`, the IC50 in assay [1] was 100 to 1000 nM; in assay [2] it was above 10000 nM. The like results for `Cc1cccc2cc(Cn3nc(-c4ccc5nc(N)cn5c4)c4c(N)ncnc43)n(-c3ccccc3)c(=O)c12` were, in that order, 100 to 1000 nM and above 10000 nM. `Cc1ccccc1-n1c(C(C)Nc2ncnc3[nH]cnc23)cc2cccc(C)c2c1=O` (stereo not given): the IC50 in assay [2] was above 10000 nM. Take `Cc1cccnc1-n1c(Cn2nc(-c3cccc(O)c3)c3c(N)ncnc32)cc2ccccc2c1=O`: the IC50 in assay [1] lay within 100 to 1000 nM.

On to `CCc1nn(Cc2cc3cccc(C)c3c(=O)n2-c2ccccc2)c2ncnc(N)c12`, for which the IC50 in assay [1] is below 100 nM. The same measure, in the same setting: as for `Cc1cccc2cc(Cn3nc(-c4ccc5nc(N)[nH]c5c4)c4c(N)ncnc43)n(-c3ccccc3)c(=O)c12`, the figure is below 100 nM. Take `Cc1nc2c(N[C@@H](C)c3cc4cccc(C)c4c(=O)n3-c3ccccc3)ncnc2[nH]1`: the IC50 in assay [2] is above 10000 nM. The molecule `Cc1ccccc1-n1c(Cn2nc(-c3ccc(Cl)c(O)c3)c3c(N)ncnc32)cc2cccc(C)c2c1=O` displayed an IC50 in assay [2] above 10000 nM. The molecule `Cc1ccccc1-n1c(Cn2nc(C(F)F)c3c(N)ncnc32)cc2cccc(C)c2c1=O` had an IC50 in assay [1] below 100 nM. Regarding `Cc1cccc2cc([C@H](C)Nc3c(C#N)cnc4ccccc34)n(-c3ccccc3)c(=O)c12`, the IC50 in assay [2] is above 10000 nM. `CCC(Nc1ncnc2[nH]cnc12)c1cc2cccc(C)c2c(=O)n1C(C)C` (stereo not given): the IC50 in assay [1] was below 100 nM; in assay [2] it was above 10000 nM. In assay [2], `COc1ccccc1-n1c(Cn2nc(-c3cccc(O)c3)c3c(N)ncnc32)cc2cccc(C)c2c1=O` gave an IC50 above 10000 nM. For the molecule `Cc1cccc2cc([C@H](C)Nc3ncnc4[nH]ncc34)n(-c3ccccc3)c(=O)c12`, the IC50 in assay [1] is 100 to 1000 nM; in assay [2] it was above 10000 nM. Take `Cc1ccccc1-n1c(Cn2nc(Br)c3c(N)ncnc32)cc2cccc(C)c2c1=O`: in assay [2], the IC50 is above 10000 nM.

The molecule `Cc1ccccc1-n1c(Cn2nc(C(=O)O)c3c(N)ncnc32)cc2cccc(C)c2c1=O` displayed an IC50 in assay [1] of 100 to 1000 nM. Consider `Cc1cccc2cc(Cn3nc(C#C[C@@H](C)O)c4c(N)ncnc43)n(C3CCCC3)c(=O)c12`, for which, in assay [2], the IC50 was above 10000 nM. Take `Cc1ccccc1-n1c(Cn2nc(C#C[C@@H](C)O)c3c(N)ncnc32)cc2ccccc2c1=O`: the IC50 in assay [1] is 100 to 1000 nM; in assay [2] it was above 10000 nM.

Regarding `Cc1cccc2cc(C(C)Nc3ncnc4[nH]cnc34)n(C3CCC3)c(=O)c12` (stereo not given), the IC50 is below 100 nM in assay [1] and above 10000 nM in assay [2]. `Nc1ncnc2c1c(-c1cccc(O)c1)nn2Cc1cc2cccc(F)c2c(=O)n1-c1ccccc1F` registered an IC50 in assay [1] of 100 to 1000 nM. The molecule `Cc1ccccc1-n1c(Cn2nc(C=CC(N)=O)c3c(N)ncnc32)cc2cccc(C)c2c1=O` came in with an IC50 in assay [2] above 10000 nM. Regarding `Cc1cccc2cc([C@H](C)Nc3ncnc4[nH]cnc34)n(C3CCC3)c(=O)c12`, the IC50 in assay [1] was below 100 nM. Still for that read-out and setting: as for `CCC(Nc1ncnc2[nH]cnc12)c1cc2cccc(C)c2c(=O)n1-c1ccc(F)cc1` (stereo not given), the figure is below 100 nM.

In turn, `Cc1cccnc1-n1c(Cn2nc(-c3cc(O)cc(F)c3)c3c(N)ncnc32)cc2cccc(C)c2c1=O` came in with an IC50 in assay [2] above 10000 nM. The same measure, in the same setting: as for `Cc1cccc2cc(Cn3nc(-c4cccc(O)c4)c4c(N)ncnc43)n(-c3ccccc3Cl)c(=O)c12`, the figure is above 10000 nM.

Take `Cc1cccc2cc(Cn3nc(C(N)=O)c4c(N)ncnc43)n(-c3ccccc3)c(=O)c12`: the IC50 in assay [1] was in the range of 100 to 1000 nM. `Cc1cccc2cc([C@H](C)Nc3ncnc4[nH]cnc34)n(-c3ccccc3)c(=O)c12` displayed an IC50 in assay [1] below 100 nM. In the case of `Cc1cccc2cc(Cn3nc(-c4cc(O)cc(F)c4)c4c(N)ncnc43)n(C3CC3)c(=O)c12`, in assay [2], the IC50 is 100 to 1000 nM. As for `Cc1cccnc1-n1c(Cn2nc(-c3ccc4oc(N)nc4c3)c3c(N)ncnc32)cc2cccc(C)c2c1=O`, the IC50 in assay [1] was below 100 nM. `Cc1cccc2cc(Cn3nc(-c4ccc(F)c(O)c4)c4c(N)ncnc43)n(C(C)C)c(=O)c12` had an IC50 in assay [2] above 10000 nM.

On to `Cc1ccccc1-n1c(Cn2nc(-c3cn[nH]c3)c3c(N)ncnc32)cc2cccc(C)c2c1=O`, for which the IC50 in assay [2] was above 10000 nM. `Cc1cccc2cc(C(C)Nc3ncnc4[nH]cnc34)n(CCN3CCOCC3)c(=O)c12` (stereo not given) yielded an IC50 in assay [1] below 100 nM. Turning to `Cc1ccccc1-n1c(Cn2nc(-c3cccc(O)c3)c3c(N)ncnc32)cc2cccc(C)c2c1=O`, the IC50 in assay [2] was above 10000 nM. The same measure, in the same setting: as for `Cc1ccccc1-n1c(Cn2nc(-c3ccc4nc(N)sc4c3)c3c(N)ncnc32)cc2cccc(C)c2c1=O`, the figure is 100 to 1000 nM.

Take `CC(=O)c1nn(Cc2cc3cccc(C)c3c(=O)n2-c2ccccc2)c2ncnc(N)c12`: the IC50 in assay [1] is 100 to 1000 nM; in assay [2] it was above 10000 nM. `Cc1cccc2cc([C@H](C)Nc3nc(Cl)nc4[nH]cnc34)n(-c3ccccc3)c(=O)c12` had an IC50 in assay [1] below 100 nM.

The molecule `Cc1cccnc1-n1c(Cn2nc(-c3ccc(Cl)c(O)c3)c3c(N)ncnc32)cc2cccc(C)c2c1=O` showed an IC50 in assay [2] above 10000 nM. With `Cc1ccccc1-n1c(Cn2nc(I)c3c(N)ncnc32)cc2cccc(C)c2c1=O`, the IC50 in assay [2] was above 10000 nM. On to `Cc1cccc2cc([C@@H](C)Nc3ncnc4[nH]cnc34)n(C3CC3)c(=O)c12`, for which the IC50 in assay [1] is above 10000 nM. With `Cc1cccnc1-n1c(Cn2nc(Cl)c3c(N)ncnc32)cc2cccc(C)c2c1=O`, the IC50 was 100 to 1000 nM in assay [1] and above 10000 nM in assay [2]. In turn, `Cc1ccccc1-n1c(Cn2nc(-c3ccc4cc[nH]c4c3)c3c(N)ncnc32)cc2cccc(C)c2c1=O` showed an IC50 in assay [2] above 10000 nM.

On to `Cc1cccc2cc(C(C)Nc3ncnc4[nH]cnc34)n(CCN3CCCC3)c(=O)c12` (stereo not given), for which the IC50 in assay [1] was below 100 nM. As for `CC(=O)Nc1nc2ccc(-c3nn(Cc4cc5cccc(C)c5c(=O)n4-c4ccccc4)c4ncnc(N)c34)cc2s1`, the IC50 in assay [2] is 100 to 1000 nM. In the case of `Cc1ccccc1-n1c(Cn2nc(-c3ccc4nc(N)oc4c3)c3c(N)ncnc32)cc2cccc(C)c2c1=O`, the IC50 in assay [1] is below 100 nM.

The molecule `Cc1cccc2cc([C@H](C)Nc3nc(F)nc4[nH]cnc34)n(-c3ccccc3)c(=O)c12` came in with an IC50 in assay [1] below 100 nM. On to `Cc1ccccc1-n1c(Cn2nc(-c3ccc(O)c(F)c3)c3c(N)ncnc32)cc2cccc(C)c2c1=O`, for which the 50% inhibitory concentration (IC50) in assay [2] was above 10000 nM. `Cc1cccc2cc(Cn3nc(-c4ccc5oc(N)nc5c4)c4c(N)ncnc43)n(-c3ccccc3)c(=O)c12`: the half-inhibitory concentration (IC50) in assay [1] was below 100 nM. Regarding `CC(=O)Nc1nc2cc(-c3nn(Cc4cc5cccc(C)c5c(=O)n4-c4ccccc4C)c4ncnc(N)c34)ccc2s1`, the results for the IC50 in assay [1] and in assay [2] were 100 to 1000 nM and above 10000 nM, respectively. For the molecule `Cc1cccc2cc(C(C)Nc3ncnc4[nH]cnc34)n(-c3ccccc3F)c(=O)c12` (stereo not given), the half-maximal inhibitory concentration (IC50) in assay [2] is above 10000 nM. In assay [2], `Cc1cccc2cc(Cn3nc(-c4cccc(O)c4)c4c(N)ncnc43)n(C3CCCCC3)c(=O)c12` displayed an IC50 above 10000 nM. In turn, `Cc1cccc2cc(Cn3nc(-c4cn[nH]c4)c4c(N)ncnc43)n(C3CCN(C)CC3)c(=O)c12` gave an IC50 in assay [1] of 100 to 1000 nM.

Consider `Cc1ccccc1-n1c(Cn2nc(I)c3c(N)ncnc32)cc2ccccc2c1=O`, for which the IC50 in assay [1] is 100 to 1000 nM; in assay [2], above 10000 nM. Consider `Cc1cccnc1-n1c(Cn2nc(Br)c3c(N)ncnc32)cc2cccc(C)c2c1=O`, for which the IC50 in assay [1] was 100 to 1000 nM; in assay [2] it was above 10000 nM. Consider `CC(=O)Nc1nc2ccc(-c3nn(Cc4cc5cccc(C)c5c(=O)n4-c4ccccc4C)c4ncnc(N)c34)cc2[nH]1`, for which the IC50 in assay [1] is below 100 nM. As to `Cc1cccc2cc(Cn3nc(C#C[C@@H](C)O)c4c(N)ncnc43)n(C(C)C)c(=O)c12`, in assay [2], the IC50 was above 10000 nM. Consider `Cc1ccccc1-n1c(Cn2nc(CO)c3c(N)ncnc32)cc2cccc(C)c2c1=O`, for which the IC50 in assay [1] is 100 to 1000 nM; in assay [2], above 10000 nM. As for `Cc1ccccc1-n1c(Cn2nc(-c3ccc4nc(N)[nH]c4c3)c3c(N)ncnc32)cc2cccc(C)c2c1=O`, the IC50 in assay [1] was below 100 nM. In the case of `Cc1cccc2cc(Cn3nc(-c4cc(O)cc(F)c4)c4c(N)ncnc43)n(C3CCCCC3)c(=O)c12`, the IC50 in assay [2] is above 10000 nM. `CCC(Nc1ncnc2[nH]cnc12)c1cc2cccc(C)c2c(=O)n1C1CCN(C)CC1` (stereo not given): the IC50 was 100 to 1000 nM in assay [1] and above 10000 nM in assay [2]. `Cc1cccc2cc(C(C)Nc3ncnc4[nH]cnc34)n(-c3ccccc3)c(=O)c12` (stereo not given) had an IC50 in assay [1] below 100 nM. Molecule `Cc1ccccc1-n1c(Cn2nc(-c3cnc4[nH]ccc4c3)c3c(N)ncnc32)cc2cccc(C)c2c1=O` registered an IC50 in assay [2] above 10000 nM. In turn, `Cc1cccc2cc(Cn3nc(-c4cc(O)cc(F)c4)c4c(N)ncnc43)n(-c3ccccc3)c(=O)c12` gave an IC50 in assay [2] of 100 to 1000 nM. For `Cc1ccccc1-n1c(Cn2nc(-c3ccc4nc(N)ccc4c3)c3c(N)ncnc32)cc2cccc(C)c2c1=O`, in assay [2], the concentration for half-maximal inhibition (IC50) lay in the range of 100 to 1000 nM. Still for that read-out and setting: as for `Cc1cccc2cc(Cn3nc(-c4cccc(O)c4)c4c(N)ncnc43)n(-c3ccccc3O)c(=O)c12`, the figure is above 10000 nM. Consider `Cc1cccc2cc(Cn3nc(C#CC4CC4)c4c(N)ncnc43)n(-c3ccccc3F)c(=O)c12`, for which the IC50 in assay [1] was 100 to 1000 nM.

The molecule `Cc1cccc2cc(Cn3nc(I)c4c(N)ncnc43)n(C3CCCC3)c(=O)c12` displayed an IC50 in assay [1] of 100 to 1000 nM. In assay [2], `Cc1ccccc1-n1c(Cn2nc(-c3ccc(O)c(Cl)c3)c3c(N)ncnc32)cc2cccc(C)c2c1=O` registered an IC50 above 10000 nM. As to `Cc1ccccc1-n1c(Cn2nc(-c3nn[nH]n3)c3c(N)ncnc32)cc2cccc(C)c2c1=O`, the IC50 in assay [1] was below 100 nM. In the case of `Cc1cccc2cc([C@H](C)Nc3nc(N)ncc3F)n(C3CC3)c(=O)c12`, the concentration for half-maximal inhibition (IC50) in assay [2] is above 10000 nM. In turn, `Cc1cccc2cc(Cn3nc(-c4cccc(O)c4)c4c(N)ncnc43)n(C3CCC3)c(=O)c12` displayed an IC50 in assay [2] above 10000 nM. Still for that read-out and setting: with `Cc1cccc2cc(Cn3nc(C#C[C@@H](C)O)c4c(N)ncnc43)n(-c3ccccc3C(C)C)c(=O)c12` the figure was above 10000 nM; with `Cc1ccccc1-n1c(Cn2nc(-c3cc(O)cc(F)c3)c3c(N)ncnc32)cc2ccccc2c1=O`, above 10000 nM. In the case of `Cc1ccccc1-n1c(Cn2nc(-c3ccc(F)c(O)c3)c3c(N)ncnc32)cc2cccc(C)c2c1=O`, in assay [2], the IC50 is above 10000 nM. In turn, `Cc1cccc2cc(C(C)Nc3ncnc4[nH]cnc34)n(C3CCCC3)c(=O)c12` (stereo not given) yielded an IC50 in assay [1] below 100 nM.
